Test results taken from patent publication US11584733B2, “Selective histone deacetylase inhibitors for the treatment of human disease” (Shuttle Pharmaceuticals, Inc., priority 2017, dated 2023).

Molecular target: T1, Human recombinant HDAC6 (Homo sapiens, UniProt Q9UBN7)
T1 sequence (Q9UBN7 1-1215): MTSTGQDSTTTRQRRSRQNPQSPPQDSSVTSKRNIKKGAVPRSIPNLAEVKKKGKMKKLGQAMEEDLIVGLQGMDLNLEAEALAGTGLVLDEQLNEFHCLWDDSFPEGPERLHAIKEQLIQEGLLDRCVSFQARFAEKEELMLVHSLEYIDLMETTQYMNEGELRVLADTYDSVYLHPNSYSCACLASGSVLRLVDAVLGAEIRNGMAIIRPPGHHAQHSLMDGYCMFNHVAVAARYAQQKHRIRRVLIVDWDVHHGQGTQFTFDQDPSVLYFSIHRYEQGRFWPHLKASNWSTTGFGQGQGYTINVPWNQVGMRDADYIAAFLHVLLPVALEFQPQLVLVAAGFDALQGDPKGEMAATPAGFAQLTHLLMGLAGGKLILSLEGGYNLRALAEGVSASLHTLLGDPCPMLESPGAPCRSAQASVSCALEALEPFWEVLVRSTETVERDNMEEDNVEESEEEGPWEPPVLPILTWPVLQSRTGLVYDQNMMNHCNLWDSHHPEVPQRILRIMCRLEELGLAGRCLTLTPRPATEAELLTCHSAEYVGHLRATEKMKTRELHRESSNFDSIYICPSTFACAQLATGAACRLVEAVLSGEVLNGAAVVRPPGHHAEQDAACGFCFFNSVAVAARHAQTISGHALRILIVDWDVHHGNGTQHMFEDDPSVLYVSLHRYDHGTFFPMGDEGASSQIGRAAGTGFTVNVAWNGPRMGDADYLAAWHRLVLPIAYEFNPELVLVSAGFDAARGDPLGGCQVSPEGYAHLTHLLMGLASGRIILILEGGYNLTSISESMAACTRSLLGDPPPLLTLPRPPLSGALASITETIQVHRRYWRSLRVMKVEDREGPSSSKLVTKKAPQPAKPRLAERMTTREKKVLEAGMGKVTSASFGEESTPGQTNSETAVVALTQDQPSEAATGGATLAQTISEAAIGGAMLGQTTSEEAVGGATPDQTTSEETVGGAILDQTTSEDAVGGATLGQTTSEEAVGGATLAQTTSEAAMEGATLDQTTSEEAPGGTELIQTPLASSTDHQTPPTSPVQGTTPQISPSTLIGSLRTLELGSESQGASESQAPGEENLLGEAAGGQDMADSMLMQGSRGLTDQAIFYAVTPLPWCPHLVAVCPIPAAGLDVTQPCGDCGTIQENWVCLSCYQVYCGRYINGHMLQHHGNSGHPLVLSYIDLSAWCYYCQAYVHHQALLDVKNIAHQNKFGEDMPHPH
Experiment: HDAC isomer assay, Fluor-de-Lys, HDAC6
Type: biochemical
Settings: proof of concept; FIGS. 11 and 12; read-out: EC50 against HDAC6
Method: The HDAC isomer (HDAC1, 3, and 6) assays were performed as follows:
Materials: Human recombinant HDAC isomer (HDAC1, HDAC3, and HDAC6); Fluor-de-Lys HDAC substrates; 360 nm excitation 460 nm emission Plate Reader; Disposable pipettes; Pipet-aid; Pipette tips; Micro-pipetter; DMSO; Sterile micro-tubes and conical tubes; and Micro-centrifuge.
Test compounds and control preparation: All test compounds' stock solutions were made in 100% DMSO. Test compound dilutions were made in HDAC Assay buffer with a final concentration of DMSO less than or equal to 1%. Vehicle control was HDAC Assay buffer with 1% DMSO.
The reagents for the assay were prepared as follows:
1. All kit components were defrosted and these, and all dilutions described below, were kept on ice until use.
2. A sufficient amount of HDAC source diluted in Assay Buffer (BML-KI143) was prepared to provide for the assays that were performed (# of wells×15 μl). A 30-fold dilution of the HeLa Extract means that 15p L contains 0.5 μl of the undiluted Extract, an appropriate amount to use per well.
3. Dilution(s) of SAHA and/or Test Inhibitors were prepared in Assay Buffer (BML-KI143). Since 10 μl were used per well, and since the final volume of the HDAC reaction was 50p, these inhibitor dilutions were 5× their final concentration.
4. Dilution(s) of the Fluor de Lys® Substrate (BML-KI104; 50 mM) were prepared in Assay Buffer (BML-KI143) that were 2× the desired final concentration(s). For inhibitor screening, substrate concentrations at or below the Km are recommended. Twenty-five μL were used per well. […] Rapid mixing and dilution into room temperature buffer helped to prevent precipitation at high substrate concentration.
5. Shortly before use (<30 min.), sufficient Fluor de Lys® Developer was prepared for the assays to be performed (50 μl per well). First, the Fluor de Lys® Developer Concentrate was diluted 20-fold (e.g. 50 μl plus 950 μl Assay Buffer) in cold Assay Buffer (BML-K1143). […] The addition of SAHA to the Developer insures that HDAC activity stops when the Developer is added. The Developer was kept on ice until use.
1. Assay buffer, diluted trichostatin A or test inhibitor was added to appropriate wells of the microtiter plate.
2. Diluted HeLa extract or other HDAC sample was added to all wells except those that are to be “No Enzyme Controls.”
3. Diluted Fluor de Lys® Substrate and the samples in the microtiter plate were allowed to equilibrate to assay temperature (e.g. 25 or 37° C.).
4. HDAC reactions were initiated by adding diluted substrate (25 μl) to each well and mixing thoroughly.
5. HDAC reactions were allowed to proceed for desired length of time and then stop them by addition of Fluor de Lys® Developer (50 μl). The plates were incubated at room temperature (25° C.) for 10-15 min.
6. Samples were read in a microtiter-plate reading fluorimeter capable of excitation at a wavelength in the range 350-380 nm and detection of emitted light in the range 440-460 nm.

EC50 [µM] | Structure (SMILES)
> 25 | Nc1cccc2c1CN(C1CCC(=O)NC1=O)C2=O (centres unmarked) [lenalidomide, reference compound]
> 25 | O=C1CCCC(=O)N1 [glutaramide, glutarimide, reference compound]
